For the test, the target named is T1, LRRK2 wild type (recombinant human, catalytic domain amino acids 970-2527, GST-tagged) (Homo sapiens, UniProt Q5S007).
T1 construct: The wild type used was recombinant human, catalytic domain (amino acids 970-2527) GST-tagged, expressed in insect cells; GST; purchased Invitrogen Corporation PV4873; host or cells: insect cells
Description: LRRK2 wild type protein kinase assay ([γ-33P] ATP, peptide substrate […]), IC50. It is filed as biochemical. The following applies: LRRK2 (variant not given); read-out: Potency score, LRRK2 IC50. The essentials:
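Insect-cell-expressed enzyme (~5 nM), no activation, incubated 180 min at ~21 °C in 50 mM Tris-HCl pH 7.5, 0.1 mM EGTA, 1 mM DTT, 10 mM MgCl2 with 100 μM peptide substrate and [γ-33P]ATP. Reaction stopped with orthophosphoric acid, captured on P81 filters and counted; IC50 from 10 concentrations in duplicate.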

Each structure is given as a SMILES string. Where only a bound is given, the exact number is not on record here.

In general, IC50 refers to the concentration that inhibits the measured activity by half.

T1 sequence (Q5S007 970-2527): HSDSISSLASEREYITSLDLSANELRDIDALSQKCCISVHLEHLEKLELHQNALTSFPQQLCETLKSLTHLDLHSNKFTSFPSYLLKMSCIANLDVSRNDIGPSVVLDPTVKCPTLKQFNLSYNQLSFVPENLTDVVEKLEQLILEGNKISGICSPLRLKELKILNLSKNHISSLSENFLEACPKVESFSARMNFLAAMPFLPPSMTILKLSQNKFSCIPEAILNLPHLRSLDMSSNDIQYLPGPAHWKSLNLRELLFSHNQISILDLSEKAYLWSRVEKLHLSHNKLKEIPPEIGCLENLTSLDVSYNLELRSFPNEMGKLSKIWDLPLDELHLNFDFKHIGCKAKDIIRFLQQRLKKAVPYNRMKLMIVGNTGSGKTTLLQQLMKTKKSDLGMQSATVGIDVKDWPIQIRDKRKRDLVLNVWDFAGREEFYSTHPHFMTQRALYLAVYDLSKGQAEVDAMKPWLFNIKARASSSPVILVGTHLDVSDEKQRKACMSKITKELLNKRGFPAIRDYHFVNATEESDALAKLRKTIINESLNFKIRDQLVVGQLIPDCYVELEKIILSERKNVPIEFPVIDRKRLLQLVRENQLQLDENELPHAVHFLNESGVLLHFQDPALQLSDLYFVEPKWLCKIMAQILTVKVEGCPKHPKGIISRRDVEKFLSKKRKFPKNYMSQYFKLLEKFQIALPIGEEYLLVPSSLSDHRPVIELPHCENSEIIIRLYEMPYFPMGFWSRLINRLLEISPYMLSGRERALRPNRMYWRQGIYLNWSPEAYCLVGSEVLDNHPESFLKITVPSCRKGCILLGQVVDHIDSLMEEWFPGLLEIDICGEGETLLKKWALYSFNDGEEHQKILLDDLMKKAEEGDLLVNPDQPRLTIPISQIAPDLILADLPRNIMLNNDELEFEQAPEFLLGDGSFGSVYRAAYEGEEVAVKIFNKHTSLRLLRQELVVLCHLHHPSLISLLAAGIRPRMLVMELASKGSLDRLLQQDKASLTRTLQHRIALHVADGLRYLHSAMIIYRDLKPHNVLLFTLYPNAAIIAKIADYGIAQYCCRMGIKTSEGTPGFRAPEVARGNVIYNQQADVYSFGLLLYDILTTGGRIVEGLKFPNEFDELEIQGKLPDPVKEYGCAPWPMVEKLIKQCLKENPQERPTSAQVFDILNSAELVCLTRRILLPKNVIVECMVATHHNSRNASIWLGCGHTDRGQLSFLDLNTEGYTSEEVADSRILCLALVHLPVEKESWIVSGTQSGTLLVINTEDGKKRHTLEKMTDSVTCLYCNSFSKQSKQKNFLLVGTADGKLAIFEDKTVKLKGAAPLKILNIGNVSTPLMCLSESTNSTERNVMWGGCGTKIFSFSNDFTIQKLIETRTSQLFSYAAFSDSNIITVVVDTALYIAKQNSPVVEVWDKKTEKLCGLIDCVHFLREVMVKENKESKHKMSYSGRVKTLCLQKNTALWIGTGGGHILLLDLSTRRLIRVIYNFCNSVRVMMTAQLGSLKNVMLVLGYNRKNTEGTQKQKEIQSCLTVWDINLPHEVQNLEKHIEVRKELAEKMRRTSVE

For `Cc1n[nH]c2ccnc(-c3cccc(NS(C)(=O)=O)c3)c12` [Example 52, N-[3-(3-Methyl-1H-pyrazolo[4,3-c]pyridin-4-yl)-phenyl]-methane-sulfonamide], the half-inhibitory concentration (IC50) was in the range of 1000 to 10000 nM.
On to `Cc1n[nH]c2ccnc(Nc3ccc(F)cc3)c12` [Example 311, (4-Fluoro-phenyl)-(3-methyl-1H-pyrazolo[4,3-c]pyridin-4-yl)-amine], for which the concentration for half-maximal inhibition (IC50) is 100 to 1000 nM.
As to `Cc1n[nH]c2ccnc(Nc3ccc4cn(C)nc4c3)c12` [Example 64, (2-Methyl-2H-indazol-6-yl)-(3-methyl-1H-pyrazolo[4,3-c]pyridin-4-yl)-amine], the IC50 fell in the range of 1000 to 10000 nM.
`CCN(CC)C(=O)CCc1n[nH]c2ccnc(NC3CCCCC3)c12` [Example 181, 3-(4-Cyclohexylamino-1H-pyrazolo[4,3-c]pyridin-3-yl)-N,N-diethyl-propionamide]: the half-maximal inhibitory concentration (IC50) is 100 to 1000 nM.
`Cc1n[nH]c2ccnc(Nc3cccc(N4CCOCC4)c3)c12` [Example 80, (3-Methyl-1H-pyrazolo[4,3-c]pyridin-4-yl)-(3-morpholin-4-yl-phenyl)-aniline]: the IC50 was in the range of 1000 to 10000 nM.
The figure for `COc1ccc(-c2n[nH]c3ccnc(NC4CCCCC4)c23)cc1` [Example 141, Cyclohexyl-[3-(4-methoxy-phenyl)-1H-pyrazolo[4,3-c]pyridin-4-yl]-amine] is 100 to 1000 nM; for `Cc1n[nH]c2ccnc(NCc3ccc(C#N)cc3)c12` [Example 327, 4-[(3-Methyl-1H-pyrazolo[4,3-c]pyridin-4-ylamino)-methyl]-benzonitrile] it is 1000 to 10000 nM.
As for `Cc1n[nH]c2ccnc(Nc3ccc(F)c(Cl)c3)c12` [Example 307, (3-Chloro-4-fluoro-phenyl)-(3-methyl-1H-pyrazolo[4,3-c]pyridin-4-yl)-amine], the 50% inhibitory concentration (IC50) lay within 100 to 1000 nM.
For `CCC(C)Nc1nccc2[nH]nc(C)c12` (centres unmarked) [Example 23, sec-Butyl-(3-methyl-1H-pyrazolo[4,3-c]pyridin-4-yl)-amine], the half-inhibitory concentration (IC50) was 100 to 1000 nM.
With `Cc1n[nH]c2ccnc(NC3CCN(Cc4ccccc4)CC3)c12` [Example 98, (1-Benzyl-piperidin-4-yl)-(3-methyl-1H-pyrazolo[4,3-c]pyridin-4-yl)-amine], the half-inhibitory concentration (IC50) lay within 1000 to 10000 nM.
With `O=C(CC1CC1)Nc1cccc(CCc2n[nH]c3ccnc(NC4CCCCC4)c23)c1` [Example 223, N-{3-[2-(4-Cyclohexylamino-1H-pyrazolo[4,3-c]pyridin-3-yl)-ethyl]-phenyl}-2-cyclopropyl-acetamide], the IC50 was under 100 nM.
With `Cc1n[nH]c2ccnc(N(C)CC(C)C)c12` [Example 91, Isobutyl-methyl-(3-methyl-1H-pyrazolo[4,3-cc]pyridin-4-yl)-amine] the figure was 1000 to 10000 nM.
Take `Cc1n[nH]c2ccnc(Nc3ccc4nccnc4c3)c12` [Example 352, (3-Methyl-1H-pyrazolo[4,3-c]pyridin-4-yl)-quinoxalin-6-yl-amine]: the IC50 was 1000 to 10000 nM.
Consider `O=C(CCc1n[nH]c2ccnc(NC3CCCCC3)c12)N1CCCC(C(F)(F)F)C1` (centres unmarked) [Example 202, 3-(4-Cyclohexylamino-1H-pyrazolo[4,3-c]pyridin-3-yl)-1-(3-trifluoromethyl-piperidin-1-yl)-propan-1-one], for which the IC50 fell in the range of 100 to 1000 nM.
Regarding `CN(C)C(=O)c1ccc(-c2n[nH]c3ccnc(NC4CCCCC4)c23)cc1` [Example 165, 4-(4-Cyclohexylamino-1H-pyrazolo[4,3-c]pyridin-3-yl)-N,N-dimethyl-benzamide], the IC50 fell in the range of 1000 to 10000 nM.
For the molecule `Cc1n[nH]c2ccnc(NCc3ccccn3)c12` [Example 312, (3-Methyl-1H-pyrazolo[4,3-c]pyridin-4-yl)-pyridin-2-ylmethyl-amine], the half-maximal inhibitory concentration (IC50) was in the range of 1000 to 10000 nM.
With `c1cc2[nH]nc(C3CC3)c2c(NC2CCCCC2)n1` [Example 138, Cyclohexyl-(3-cyclopropyl-1H-pyrazolo[4,3-c]pyridin-4-yl)-amine] the figure was 100 to 1000 nM; with `O=C(Nc1cccc(CCc2n[nH]c3ccnc(NC4CCCCC4)c23)c1)C1CCCC1` [Example 225, Cyclopentanecarboxylic acid {3-[2-(4-cyclohexylamino-1H-pyrazolo[4,3-c]pyridin-3-yl)-ethyl]-phenyl}-amide], under 100 nM; with `CC1CN(C(=O)c2ccc(CCc3n[nH]c4ccnc(NC5CCCCC5)c34)cc2)C1` [Example 251, {4-[2-(4-Cyclohexylamino-1H-pyrazolo[4,3-c]pyridin-3-yl)-ethyl]-phenyl}-(3-methyl-azetidin-1-yl)-methanone], under 100 nM.
On to `Cc1n[nH]c2ccnc(NC3CCS(=O)(=O)CC3)c12` [Example 46, (1,1-Dioxo-hexahydro-1λ^6-thiopyran-4-yl)-(3-methyl-1H-pyrazolo[4,3-c]pyridin-4-yl)-amine], for which the IC50 is 100 to 1000 nM.
On to `Oc1nccc2[nH]nc(-c3ccoc3)c12` [Example 167, 3-Furan-3-yl-1H-pyrazolo[4,3-c]pyridin-4-ol], for which the IC50 is 100 to 1000 nM.
For `O=C(CCc1n[nH]c2ccnc(NC3CCCCC3)c12)N1CCC(O)(c2ccccc2)CC1` [Example 176, 3-(4-Cyclohexylamino-1H-pyrazolo[4,3-c]pyridin-3-yl)-1-(4-hydroxy-4-phenyl-piperidin-1-yl)-propan-1-one], the concentration for half-maximal inhibition (IC50) lay within 100 to 1000 nM.
Take `Cc1n[nH]c2ccnc(Oc3cccc(F)c3)c12` [Example 117, 4-(3-Fluoro-phenoxy)-3-methyl-1H-pyrazolo [4,3-c]pyridine]: the IC50 was in the range of 100 to 1000 nM.
With `C[C@@H]1CCN(C(=O)CCc2n[nH]c3ccnc(NC4CCCCC4)c23)C1` [Example 246, 3-(4-Cyclohexylamino-1H-pyrazolo[4,3-c]pyridin-3-yl)-1-((R)-3-methyl-pyrrolidin-1-yl)-propan-1-one] the figure was under 100 nM; with `CC(=O)Nc1cccc(CCc2n[nH]c3ccnc(NC4CCCCC4)c23)c1` [Example 222, N-{3-[2-(4-Cyclohexylamino-1H-pyrazolo[4,3-c]pyridin-3-yl)-ethyl]-phenyl}-acetamide], under 100 nM; with `Clc1ccc(-c2n[nH]c3ccnc(NC4CCCCC4)c23)cc1` [Example 145, [3-(4-Chloro-phenyl)-1H-pyrazolo[4,3-c]pyridin-4-yl]-cyclohexyl-amine], 100 to 1000 nM.
As to `CC1CCN(C(=O)c2ccc(CCc3n[nH]c4ccnc(NC5CCCCC5)c34)cc2)CC1` [Example 229, {4-[2-(4-Cyclohexylamino-1H-pyrazolo[4,3-c]pyridin-3-yl)-ethyl]-phenyl}-(4-methyl-piperidin-1-yl)-methanone], the IC50 is under 100 nM.
For `CC(=O)Nc1ccc(Nc2nccc3[nH]nc(C)c23)cc1` [Example 79, N-[4-(3-Methyl-1H-pyrazolo[4,3-c]pyridin-4-ylamino)-phenyl]-acetamide], the IC50 is 100 to 1000 nM.
Turning to `CCOc1ccc(Nc2nccc3[nH]nc(C)c23)cc1` [Example 72, (4-Ethoxy-phenyl)-(3-methyl-1H-pyrazolo[4,3-c]pyridin-4-yl)-amine], the half-maximal inhibitory concentration (IC50) lay in the range of 100 to 1000 nM.
Consider `Cc1n[nH]c2ccnc(OC3CCCC3(C)C)c12` (centres unmarked) [Example 289, 4-(2,2-Dimethyl-cyclopentyloxy)-3-methyl-1H-pyrazolo[4,3-c]pyridine], for which the half-inhibitory concentration (IC50) lay within 100 to 1000 nM.
In the case of `c1ccc(CCc2n[nH]c3ccnc(NC4CCCCC4)c23)nc1` [Example 214, Cyclohexyl-[3-(2-pyridin-2-yl-ethyl)-1H-pyrazolo[4,3-c]pyridin-4-yl]-amine], the 50% inhibitory concentration (IC50) was under 100 nM.
`COCC(=O)Nc1ccc(CCc2n[nH]c3ccnc(NC4CCCCC4)c23)cc1` [Example 272, N-{4-[2-(4-Cyclohexylamino-1H-pyrazolo[4,3-c]pyridin-3-yl)-ethyl]-phenyl}-2-methoxy-acetamide]: the IC50 is under 100 nM.
`CC(=O)Nc1cccc(-c2n[nH]c3ccnc(NC4CCCCC4)c23)c1` [Example 137, N-[3-(4-Cyclohexylamino-1H-pyrazolo[4,3-c]pyridin-3-yl)-phenyl]-acetamide]: the IC50 is 1000 to 10000 nM.
Turning to `O=C(CCc1n[nH]c2ccnc(NC3CCCCC3)c12)N1CCCC(c2ccccc2)C1` (centres unmarked) [Example 170, 3-(4-Cyclohexylamino-1H-pyrazolo[4,3-c]pyridin-3-yl)-1-(3-phenyl-piperidin-1-yl)-propan-1-one], the IC50 was 100 to 1000 nM.
With `Cc1n[nH]c2ccnc(Nc3ccc(C(=O)N(C)C4CCCCC4)cc3)c12` [Example 107, N-Cyclohexyl-N-methyl-4-(3-methyl-1H-pyrazolo [4,3-c]pyridin-4-ylamino)-benzamide], the IC50 fell in the range of 1000 to 10000 nM.
Turning to `O=C(NCc1ccco1)c1ccc(CCc2n[nH]c3ccnc(NC4CCCCC4)c23)cc1` [Example 250, 4-[2-(4-Cyclohexylamino-1H-pyrazolo[4,3-c]pyridin-3-yl)-ethyl]-N-furan-2-ylmethyl-benzamide], the IC50 was under 100 nM.
`Cc1n[nH]c2ccnc(NCCCn3ccnc3)c12` [Example 15, (3-Imidazol-1-yl-propyl)-(3-methyl-1H-pyrazolo[4,3-c]pyridin-4-yl)-amine]: the IC50 fell in the range of 100 to 1000 nM.
With `Cc1n[nH]c2ccnc(NCCCO)c12` [Example 301, 3-(3-Methyl-1H-pyrazolo[4,3-c]pyridin-4-ylamino)-propan-1-ol] the figure was 1000 to 10000 nM; with `Cc1n[nH]c2ccnc(Nc3cccc(O)c3)c12` [Example 77, 3-(3-Methyl-1H-pyrazolo[4,3-c]pyridin-4-ylamino)-phenol], 100 to 1000 nM.
The figure for `Cc1nc2cc(Nc3nccc4[nH]nc(C)c34)ccc2s1` [Example 328, (2-Methyl-benzothiazol-5-yl)-(3-methyl-1H-pyrazolo[4,3-c]pyridin-4-yl)-amine] is 1000 to 10000 nM; for `Cc1n[nH]c2ccnc(Nc3ccc(S(C)(=O)=O)cc3)c12` [Example 322, (4-Methanesulfonyl-phenyl)-(3-methyl-1H-pyrazolo[4,3-c]pyridin-4-yl)-amine] it is 1000 to 10000 nM.
